The results in this text go back to ChEMBL document CHEMBL1201862, “PubChem BioAssay data set” (2004).

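Following 48 hours of exposure in 96-well plates, responses at five concentrations were used to interpolate endpoints linearly. Abbreviation: GI50, concentration required for 50% inhibition of growth.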 Activity calls are given as the source filed them. Cut-off read from the data, not from the text of the source: active = GI50 up to about 1.1 µM and inactive = higher.

One may read the GI50 as the concentration at which growth is held to half of that of the control.

What all share (experiment): DTP human tumour cell line panel, 48 h
Assay [1] deals with HOP-62.
The subject of assay [2] is RPMI-8226.
Assay [3] concerns NCI-H522.
Assay [4] relates to NCI-H23.
Assay [5] has as its system SK-OV-3.
Assay [6] has as its system RXF 393.
Assay [7] has as its system EKVX.
For assay [8], the system named is SK-MEL-2.
Assay [9] concerns SNB-19.
Assay [10] relates to LOX IMVI.
The test system of assay [11] is MCF7.
The subject of assay [12] is OVCAR-3.
Assay [13] concerns SK-MEL-5.
Assay [14] relates to HCT-15.
Assay [15] relates to Hs-578T.

`COc1ccc2cc(C(=O)NCCCNC(=O)c3ccc4c(OC)c(OC)ccc4c3)ccc2c1OC`: the GI50 in assay [1], in assay [2], in assay [3], in assay [4], in [5] and in assay [6] was > 100 µM (inactive) throughout. Moreover, the GI50 in [7], in assay [8], in assay [9], in [10], in assay [11] and in [12] was > 100 µM (inactive) each time. In addition, the GI50 in [13] is > 100 µM (inactive); in assay [14], over 100 µM.
Take `N#Cc1c(N)sc2c1-c1ccccc1OC2`: the GI50 in [1] is 46.3 µM (inactive); in assay [2] it was 33.6 µM (inactive); in assay [4] it was 45.4 µM (inactive); in [5], 38.2 µM (inactive); in assay [6], 16 µM (inactive); in assay [7] it was 3.52 µM (inactive). The GI50 in assay [8] was 38.5 µM (inactive); in [9], 30.5 µM (inactive); in assay [10], 38.1 µM (inactive); in assay [11], 40 µM (inactive); in assay [12], 22.3 µM (inactive); in [13], 45.3 µM (inactive). The compound further gave a GI50 in assay [14] of 26.7 µM.
With `CN1C(C)(C)CC(=O)C(Br)C1(C)C` (centres undefined), the GI50 in [1], in assay [2], in [3], in assay [4], in [5] and in assay [7] was > 100 µM (inactive) throughout. Besides, the GI50 in assay [8], in assay [9], in assay [10], in assay [11], in assay [12] and in assay [13] was > 100 µM (inactive) throughout. Besides, the GI50 is > 100 µM (inactive) in assay [15] and over 100 µM in [14].
Take `COC(O)C(=O)c1c2c(cc3c1CCC3)CCCC2` (centres undefined): the GI50 was 17.1 µM (inactive) in assay [1]; 2.46 µM (inactive) in assay [2]; 3.84 µM (inactive) in [3]; 10.7 µM (inactive) in assay [4]; 12 µM (inactive) in assay [5]; 16.7 µM (inactive) in assay [7]. The GI50 is 11.4 µM (inactive) in [8]; 17.2 µM (inactive) in [9]; 1.99 µM (inactive) in [10]; 5.27 µM (inactive) in [11]; 4.65 µM (inactive) in assay [12]; 4.47 µM (inactive) in [13]. Besides, the GI50 in [15] was 4.22 µM (inactive); in assay [14] it was 4.25 µM.
On to `Cc1nc2ccccc2n1Cc1nnc2n1N=C(c1ccccc1)CS2`, for which the GI50 in assay [1] is 47.3 µM (inactive); in [2] it was 17.7 µM (inactive); in [3], 22.1 µM (inactive); in assay [4], 33.2 µM (inactive); in [5], > 100 µM (inactive); in [7], 34.3 µM (inactive). The GI50 in assay [8] is 17 µM (inactive); in assay [9] it was 32.1 µM (inactive); in assay [11], 27.4 µM (inactive); in [12], 35.2 µM (inactive); in assay [13], 29.2 µM (inactive); in assay [15] it was 38.5 µM (inactive). Besides, the GI50 in [14] was 54.8 µM.
As for `COc1ccc2nc3c([N+](=O)[O-])ccc4c3c(c2c1)N=CN4CCCN(C)C`, the GI50 was 1.2 µM (inactive) in [1]; 0.318 µM (active) in [2]; 1.34 µM (inactive) in assay [3]; 4.27 µM (inactive) in assay [4]; 4.4 µM (inactive) in assay [5]; 1.64 µM (inactive) in assay [7]. Also, the GI50 in [8] was 7.71 µM (inactive); in assay [9], 4.74 µM (inactive); in assay [10] it was 2.01 µM (inactive); in assay [11] it was 0.733 µM (active); in assay [12], 2.91 µM (inactive); in [13], 3.24 µM (inactive). In addition, the figures for the GI50 in assay [15] and in [14] were 7.28 µM (inactive) and 0.53 µM, respectively.
For the compound `N#Cc1c(-c2ccc(Cl)cc2)cc(-c2nc3ccccc3[nH]2)nc1N`, the GI50 in assay [1] is 14.4 µM (inactive); in assay [2], 4.22 µM (inactive); in assay [3] it was 13.7 µM (inactive); in assay [4], 14.2 µM (inactive); in [5] it was 19.5 µM (inactive); in [7], 11 µM (inactive). For the same compound, the GI50 in assay [8] is 12.6 µM (inactive); in assay [9], 12.1 µM (inactive); in assay [10], 10.2 µM (inactive); in [11] it was 3.49 µM (inactive); in assay [12], 12.5 µM (inactive); in assay [13], 6.67 µM (inactive). Moreover, the GI50 was 16.5 µM (inactive) in [15] and 10.9 µM in assay [14].
For the compound `COc1ccc(C2C=C(c3ccc(C)cc3)N(c3ccc(OC)cc3[N+](=O)[O-])C3C(=O)OC(=O)C23)c(OC)c1` (centres undefined), the GI50 in assay [1] was 96.6 µM (inactive); in [2] it was 22 µM (inactive); in assay [3], 10.4 µM (inactive); in assay [4] it was 52.4 µM (inactive); in assay [5] it was 25 µM (inactive); in assay [7], 28.2 µM (inactive). Moreover, the GI50 in [8] is 24 µM (inactive); in [9], 47 µM (inactive); in [10] it was 25.5 µM (inactive); in assay [11], 42.5 µM (inactive); in assay [12], 20.2 µM (inactive); in assay [13] it was 64.6 µM (inactive). The GI50 in assay [15] was 22.5 µM (inactive); in assay [14], 33.5 µM.
As to `O=C(NC1C(=O)NC(CCc2ccccc2)NC1=O)OCc1ccccc1` (centres undefined), the GI50 in assay [1], in assay [2], in assay [3], in [4], in assay [6] and in [7] was > 100 µM (inactive) in each case. Moreover, the GI50 was > 100 µM (inactive) in assay [9]; > 100 µM (inactive) in [10]; > 100 µM (inactive) in [11]; > 100 µM (inactive) in [12]; > 100 µM (inactive) in assay [13]; over 100 µM in assay [14].
Turning to `CN1CCN(c2ccc3c(c2)NCC(=O)N3)CC1`, the GI50 in assay [1], in assay [2], in assay [3], in assay [4], in assay [5] and in assay [6] was > 100 µM (inactive) each time. Also, the GI50 in assay [7] is 96.4 µM (inactive); in assay [8] it was > 100 µM (inactive); in assay [9] it was > 100 µM (inactive); in assay [10], > 100 µM (inactive); in assay [12], > 100 µM (inactive); in assay [13] it was > 100 µM (inactive). Besides, the GI50 in [15] was > 100 µM (inactive); in [14], over 100 µM.
As for `CC(=O)OC(C)(C)CCC(=O)[C@](C)(O)[C@H]1[C@H](O)C[C@@]2(C)[C@@H]3CC=C4C(C)=C(OC5OC(CO)C(O)C(O)C5O)C(=O)C[C@@H]4[C@]3(C)C(=O)C[C@]12C` (some centres undefined), the GI50 in assay [1], in [3], in assay [4], in assay [5], in assay [6] and in assay [7] was > 100 µM (inactive) throughout. In addition, the GI50 in assay [8], in assay [9], in assay [10], in assay [11], in assay [12] and in assay [13] was > 100 µM (inactive) in each case. Also, the GI50 in assay [14] is over 100 µM.
With `CCCCC[C@H]1CCCCCCCCCC(=O)OC2C(O[C@@H]3OC(C)[C@H](OC(=O)[C@@H](C)CC)C(O[C@@H]4OC(C)[C@H](O)C(O)[C@@H]4O)[C@@H]3OC(=O)[C@H](C)CC)[C@H](OC3C(O)[C@@H](O)C(C)O[C@H]3O1)OC(CO)[C@H]2O` (some centres undefined), the GI50 in [1] was 18.2 µM (inactive); in assay [2], 16.8 µM (inactive); in [3], 17.7 µM (inactive); in [4], 17.9 µM (inactive); in assay [5], 15.6 µM (inactive); in assay [7] it was 19.2 µM (inactive). The GI50 was 16.4 µM (inactive) in assay [8]; 16.1 µM (inactive) in [9]; 17 µM (inactive) in [10]; 17.3 µM (inactive) in assay [11]; 17.9 µM (inactive) in assay [12]; 17.1 µM (inactive) in assay [13]. Moreover, the GI50 in [15] was 16.4 µM (inactive); in assay [14], 16.7 µM.
Take `N#C/C(=C\c1cc(F)cc(F)c1)c1ccccn1`: the GI50 is > 10 µM (inactive) in assay [1]; 14.9 µM (inactive) in assay [2]; 24.2 µM (inactive) in assay [3]; 26.1 µM (inactive) in assay [4]; 61.8 µM (inactive) in [5]; 26.7 µM (inactive) in assay [6]. The GI50 in assay [7] was 13 µM (inactive); in assay [8], 22.9 µM (inactive); in assay [9] it was 45.6 µM (inactive); in assay [11] it was 26.9 µM (inactive); in [12] it was 36.1 µM (inactive); in [13], 13.3 µM (inactive). Further, in assay [14], it took 15.4 µM to inhibit growth by half (GI50).
For `NS(=O)(=O)c1ccc(-n2c(-c3cccs3)nc3ccc(I)cc3c2=O)cc1`, the GI50 in assay [1] was 30.4 µM (inactive); in assay [3], 19.7 µM (inactive); in assay [4] it was 25.8 µM (inactive); in [5], 22.6 µM (inactive); in assay [6], 28.2 µM (inactive); in assay [7], 25.1 µM (inactive). In addition, the GI50 was 40.4 µM (inactive) in assay [9]; 18.4 µM (inactive) in assay [10]; 23.3 µM (inactive) in assay [11]; 16 µM (inactive) in [12]; 23.7 µM (inactive) in assay [13]; 20.9 µM in assay [14].
For the compound `COc1ccc(-c2oc3cc(OC(C)=O)cc(OC(C)=O)c3c(=O)c2OC)cc1`, the GI50 in assay [1] is 18.1 µM (inactive); in assay [2], 12.5 µM (inactive); in assay [3], 2.12 µM (inactive); in assay [5], 28.8 µM (inactive); in assay [7], 13.9 µM (inactive); in assay [9], 19 µM (inactive). The GI50 in assay [10] was 14.5 µM (inactive); in assay [11] it was 20.7 µM (inactive); in assay [12] it was 15 µM (inactive); in [13], 12.4 µM (inactive); in assay [14], 20.8 µM.
